Columns and labels:
JAK2 = JAK2 (Homo sapiens (Human), UniProt O60674); experiment: JAK2 enzyme activity assay (Thermo Fisher SelectScreen, Z-lyte); type: biochemical; settings: read-out: JAK2 Inhibition IC50
How it was run: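 IC50 values derive from a 4-parameter logistic fit of emission ratio across an 11-point series ([…] to 0.34 nM, 2% DMSO vehicle). Reaction: 1 h, 0.12-0.5 ng JAK2, […] Tyr 06 in HEPES pH 7.5 buffer with MgCl2, EGTA, BRIJ-35, read by Z-lyte development.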

[1] = test system: IFNγ stimulated STAT1 phosphorylation on Tyr701 (JAK1/2); experiment: JAK1/2 cellular target modulation: IFNγ stimulated phospho-STAT1 in PBMC; type: cell-based; settings: human PBMC, IFNγ 10 ng/ml; read-out: Infγ-STAT1 IC50
How it was run: (§1)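 Thawed human PBMC (200,000/well, RPMI/10% FBS) were preincubated with compound for 1 h at 37 °C, added from 10× stocks in 1% DMSO. Stimulation and read-out: IL-2 25 ng/ml, 5 min, pSTAT5 by MSD; IL-12 1.7 ng/ml, 25 min, pSTAT4 by MSD; IFNγ 10 ng/ml, 10 min, pSTAT1 by sandwich ELISA.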

JAK1 = JAK1 (Homo sapiens (Human), UniProt P23458); experiment: JAK1 enzyme activity assay (Thermo Fisher SelectScreen, Z-lyte); type: biochemical; settings: read-out: JAK1 Inhibition IC50
How it was run: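 Z-lyte assay with 21.2-91.5 ng JAK and […] Tyr 06 in 50 mM HEPES pH 7.0, 10 mM MgCl2, 1 mM EGTA, 0.01% BRIJ-35; 1 h kinase reaction, then development reagent. 11-point dose-response from […] to 0.34 nM, 2% DMSO vehicle; IC50 from 4-parameter logistic fit of emission ratio.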

[2] = test system: IL-2 stimulated STAT5 phosphorylation on Tyr694 (JAK1/3); experiment: JAK1/3 cellular target modulation: IL-2 stimulated phospho-STAT5 in PBMC; type: cell-based; settings: human PBMC, IL-2 25 ng/ml; read-out: IL2-STAT5 IC50
How it was run: as §1

[3] = test system: IL-12 stimulated STAT4 phosphorylation on Tyr693 (JAK2/TYK2); experiment: JAK2/TYK2 cellular target modulation: IL-12 stimulated phospho-STAT4 in PBMC; type: cell-based; settings: human PBMC, IL-12 1.7 ng/ml; read-out: IL12-STAT4 IC50
How it was run: as §1

Tyk-2 = Tyk-2 (Homo sapiens (Human), UniProt P29597); experiment: Tyk-2 enzyme activity assay (Thermo Fisher SelectScreen, Z-lyte); type: biochemical; settings: read-out: Tyk-2 Inhibition IC50
How it was run: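 Z-lyte FRET assay: 3.75–15 ng TYK2 with […] Tyr 03 peptide in HEPES pH 7.0, MgCl2, EGTA, BRIJ-35; 1 h reaction, then development reagent. 11-point dose-response, 2% DMSO; IC50 via 4-parameter fit of emission ratio, background without enzyme.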

Sequence of JAK1 (P23458 whole entry): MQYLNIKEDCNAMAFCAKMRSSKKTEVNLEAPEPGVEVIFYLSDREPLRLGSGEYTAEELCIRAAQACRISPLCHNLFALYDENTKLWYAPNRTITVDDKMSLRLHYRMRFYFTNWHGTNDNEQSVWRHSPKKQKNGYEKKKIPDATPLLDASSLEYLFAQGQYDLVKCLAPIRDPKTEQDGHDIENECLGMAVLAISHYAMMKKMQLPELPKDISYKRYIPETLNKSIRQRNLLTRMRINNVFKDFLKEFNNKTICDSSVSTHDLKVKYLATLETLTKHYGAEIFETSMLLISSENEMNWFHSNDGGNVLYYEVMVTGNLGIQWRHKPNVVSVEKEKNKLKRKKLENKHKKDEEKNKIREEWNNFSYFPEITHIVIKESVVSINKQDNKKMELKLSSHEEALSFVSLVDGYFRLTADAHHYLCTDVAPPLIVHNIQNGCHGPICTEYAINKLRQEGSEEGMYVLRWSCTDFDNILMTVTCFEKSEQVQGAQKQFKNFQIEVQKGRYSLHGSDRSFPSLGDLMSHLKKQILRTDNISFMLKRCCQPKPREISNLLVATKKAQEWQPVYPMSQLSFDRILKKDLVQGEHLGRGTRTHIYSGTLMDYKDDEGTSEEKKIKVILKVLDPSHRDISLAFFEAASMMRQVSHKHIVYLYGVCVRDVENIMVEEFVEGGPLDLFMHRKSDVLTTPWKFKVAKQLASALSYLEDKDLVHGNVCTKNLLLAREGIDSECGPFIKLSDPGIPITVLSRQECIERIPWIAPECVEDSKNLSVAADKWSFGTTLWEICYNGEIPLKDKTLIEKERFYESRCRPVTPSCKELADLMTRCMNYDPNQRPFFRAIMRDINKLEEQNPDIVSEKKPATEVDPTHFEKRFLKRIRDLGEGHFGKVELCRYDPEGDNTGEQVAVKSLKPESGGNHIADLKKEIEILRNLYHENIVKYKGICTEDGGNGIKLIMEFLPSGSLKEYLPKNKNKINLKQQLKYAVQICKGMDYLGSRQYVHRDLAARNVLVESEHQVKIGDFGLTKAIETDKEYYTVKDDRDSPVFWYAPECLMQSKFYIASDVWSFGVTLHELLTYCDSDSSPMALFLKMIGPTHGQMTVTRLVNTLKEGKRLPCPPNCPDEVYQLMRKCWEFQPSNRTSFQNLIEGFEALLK
Sequence of JAK2 (O60674 whole entry): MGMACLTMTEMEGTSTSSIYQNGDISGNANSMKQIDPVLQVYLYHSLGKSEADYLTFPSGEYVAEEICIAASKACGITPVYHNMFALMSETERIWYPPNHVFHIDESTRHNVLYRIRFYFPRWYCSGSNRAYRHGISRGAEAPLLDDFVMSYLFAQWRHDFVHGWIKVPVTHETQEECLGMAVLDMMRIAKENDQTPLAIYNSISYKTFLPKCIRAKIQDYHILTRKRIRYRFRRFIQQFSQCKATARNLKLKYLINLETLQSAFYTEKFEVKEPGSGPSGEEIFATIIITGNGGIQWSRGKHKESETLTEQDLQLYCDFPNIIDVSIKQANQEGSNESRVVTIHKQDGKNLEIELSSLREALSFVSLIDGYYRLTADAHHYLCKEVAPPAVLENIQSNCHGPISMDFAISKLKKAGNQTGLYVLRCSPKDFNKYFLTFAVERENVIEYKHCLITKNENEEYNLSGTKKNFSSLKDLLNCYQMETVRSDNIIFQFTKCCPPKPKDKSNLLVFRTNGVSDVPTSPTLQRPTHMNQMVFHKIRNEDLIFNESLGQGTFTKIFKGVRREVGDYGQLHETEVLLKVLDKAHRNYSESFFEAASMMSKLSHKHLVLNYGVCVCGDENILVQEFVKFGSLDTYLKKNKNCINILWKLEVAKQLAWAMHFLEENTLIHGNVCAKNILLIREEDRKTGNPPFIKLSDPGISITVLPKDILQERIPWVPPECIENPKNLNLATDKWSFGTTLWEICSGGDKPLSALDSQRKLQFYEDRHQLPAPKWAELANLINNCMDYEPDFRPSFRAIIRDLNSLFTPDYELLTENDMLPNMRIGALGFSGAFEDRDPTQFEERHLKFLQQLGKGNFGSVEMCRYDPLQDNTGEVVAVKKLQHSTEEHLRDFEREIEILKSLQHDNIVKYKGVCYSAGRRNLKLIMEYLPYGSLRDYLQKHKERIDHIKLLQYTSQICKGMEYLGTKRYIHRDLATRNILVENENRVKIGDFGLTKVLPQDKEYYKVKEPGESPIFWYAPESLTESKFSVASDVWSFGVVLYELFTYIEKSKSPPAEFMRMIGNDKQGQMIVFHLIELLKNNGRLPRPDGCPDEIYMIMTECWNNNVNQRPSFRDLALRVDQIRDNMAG
Sequence of Tyk-2 (P29597 whole entry): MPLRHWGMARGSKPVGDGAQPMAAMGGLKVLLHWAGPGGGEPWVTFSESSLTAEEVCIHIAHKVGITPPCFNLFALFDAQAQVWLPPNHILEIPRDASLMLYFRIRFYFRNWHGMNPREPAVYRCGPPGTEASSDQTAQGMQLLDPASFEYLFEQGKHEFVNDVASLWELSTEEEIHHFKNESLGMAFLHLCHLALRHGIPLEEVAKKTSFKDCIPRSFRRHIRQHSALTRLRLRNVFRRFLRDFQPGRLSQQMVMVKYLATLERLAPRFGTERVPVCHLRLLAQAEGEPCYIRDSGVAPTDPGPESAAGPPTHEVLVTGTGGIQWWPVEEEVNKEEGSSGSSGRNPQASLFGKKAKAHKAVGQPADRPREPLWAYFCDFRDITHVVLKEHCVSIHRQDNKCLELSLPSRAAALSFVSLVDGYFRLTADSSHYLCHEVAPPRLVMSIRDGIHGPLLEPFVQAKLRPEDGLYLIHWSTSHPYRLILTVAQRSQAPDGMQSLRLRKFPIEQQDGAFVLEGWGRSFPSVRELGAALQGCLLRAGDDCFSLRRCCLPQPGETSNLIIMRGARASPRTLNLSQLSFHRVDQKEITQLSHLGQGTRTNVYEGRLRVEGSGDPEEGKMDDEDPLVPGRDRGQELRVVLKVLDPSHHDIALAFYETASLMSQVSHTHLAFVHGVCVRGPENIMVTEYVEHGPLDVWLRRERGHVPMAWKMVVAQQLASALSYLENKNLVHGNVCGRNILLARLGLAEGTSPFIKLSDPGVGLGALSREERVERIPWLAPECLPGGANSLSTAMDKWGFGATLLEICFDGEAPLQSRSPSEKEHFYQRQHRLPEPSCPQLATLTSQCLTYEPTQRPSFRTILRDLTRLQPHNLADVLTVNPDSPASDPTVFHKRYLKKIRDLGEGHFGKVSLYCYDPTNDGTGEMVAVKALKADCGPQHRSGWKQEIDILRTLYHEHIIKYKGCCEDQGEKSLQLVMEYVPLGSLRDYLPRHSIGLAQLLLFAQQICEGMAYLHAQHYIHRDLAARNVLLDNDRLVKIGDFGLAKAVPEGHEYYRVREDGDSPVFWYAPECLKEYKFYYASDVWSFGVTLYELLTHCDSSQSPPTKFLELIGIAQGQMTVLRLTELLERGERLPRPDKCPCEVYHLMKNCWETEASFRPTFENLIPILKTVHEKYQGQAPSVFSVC

`CNC(=O)c1coc(-c2cnc3[nH]ccc3c2N[C@@H]2C[C@H](C)CN(C(=O)CC#N)C2)n1` [Example 31, 2-(4-(((3R,5S)-1-(2-cyanoacetyl)-5-methylpiperidin-3-yl)amino)-1H-pyrrolo[2,3-b]pyridin-5-yl)-N-methyloxazole-4-carboxamide] gave an IC50 (JAK2) of no more than 10 nM, an IC50 [1] of no more than 100 nM and an IC50 (JAK1) of no more than 10 nM. The IC50 [2] was no more than 100 nM, the IC50 [3] was greater than 1000 nM and the IC50 (Tyk-2) was no more than 10 nM.
